Experimental data: PubChem BioAssay (NCI)
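Five compound concentrations were applied to cells in 96-well plates for 48 hours; endpoints were derived by simple linear interpolation of the resulting dose-response curve. GI50 is the concentration that inhibits growth by half. TGI marks complete inhibition of growth.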

Experiments:
Assay in all cases: NCI-60 cell line screen, 48 h
[1] = system: SK-MEL-5 melanoma
[2] = system: OVCAR-4 ovarian
[3] = system: HCC-2998 colon
[4] = system: SK-OV-3 ovarian
[5] = system: SF-295 CNS
[6] = system: TK-10 renal
[7] = system: RXF 393 renal
[8] = system: COLO 205 colon
[9] = system: MDA-MB-435
[10] = system: SNB-75 CNS
[11] = system: SK-MEL-2 melanoma
[12] = system: CAKI-1 renal
[13] = system: HOP-92 NSCLC
[14] = system: U251 CNS
[15] = system: SF-539 CNS
[16] = system: HL-60(TB) leukemia
[17] = system: EKVX NSCLC
[18] = system: A498 renal
[19] = system: KM12 colon
[20] = system: HOP-62 NSCLC
[21] = system: DU-145 prostate
[22] = system: HCT-15 colon
[23] = system: OVCAR-3 ovarian
[24] = system: UO-31 renal
[25] = system: UACC-257 melanoma
[26] = system: ACHN renal
[27] = system: BT-549 breast
[28] = system: A549 NSCLC
[29] = system: PC-3 prostate
[30] = system: MDA-MB-231 breast
[31] = system: OVCAR-5 ovarian
[32] = system: MCF7 breast
[33] = system: NCI-H226 lung
[34] = system: K-562 leukemia
[35] = system: SK-MEL-28 melanoma
[36] = system: IGROV1 ovarian
[37] = system: CCRF-CEM leukemia
[38] = system: NCI-H522 lung
[39] = system: HCT-116 colon
[40] = system: RPMI-8226 leukemia
[41] = system: UACC-62 melanoma
[42] = system: 786-0 renal
[43] = system: LOX IMVI melanoma
[44] = system: NCI/ADR-RES ovarian
[45] = system: SW-620 colon
[46] = system: MOLT-4 leukemia
[47] = system: SNB-19 CNS
[48] = system: HT29 colon
[49] = system: M14 melanoma
[50] = system: SN12C renal
[51] = system: NCI-H23 lung
[52] = system: OVCAR-8 ovarian
[53] = system: MALME-3M melanoma
[54] = system: NCI-H460 lung
[55] = system: SF-268 CNS
[56] = system: HS 578T breast
[57] = system: T-47D breast
[58] = system: SR leukemia

`COC1=CC(c2ccc[nH]2)=N/C1=C\c1[nH]c(C)c(CC(=O)NCc2ccccc2)c1C` showed a GI50 [1] of 1.53 µM, a TGI [1] of 2.89 µM and a GI50 [2] of 1.35 µM. The TGI [2] was 2.93 µM, the GI50 [3] was 1.55 µM and the TGI [3] was 3.07 µM. It also gave a GI50 [4] of 1.87 µM, a TGI [4] of 3.39 µM and a GI50 [5] of 1.47 µM. The TGI [5] was 2.89 µM, the GI50 [6] was 1.75 µM and the TGI [6] was 3.24 µM. For the same compound, the GI50 [7] was 1.55 µM, the TGI [7] was 2.95 µM and the GI50 [8] was 1.38 µM. It also gave a TGI [8] of 2.98 µM, a GI50 [9] of 1.68 µM and a TGI [9] of 3.23 µM. It also gave a GI50 [10] of 1.51 µM, a TGI [10] of 2.89 µM and a GI50 [11] of 1.71 µM. It also gave a TGI [11] of 3.29 µM, a GI50 [12] of 1.48 µM and a TGI [12] of 2.85 µM. The GI50 [13] was 1.4 µM, the TGI [13] was 2.94 µM and the GI50 [14] was 1.23 µM. It also gave a TGI [14] of 2.49 µM, a GI50 [15] of 1.89 µM and a TGI [15] of 3.51 µM. The GI50 [16] was 1.63 µM, the TGI [16] was 3.47 µM and the GI50 [17] was 1.06 µM. For the same compound, the TGI [17] was 2.47 µM, the GI50 [18] was 1.28 µM and the TGI [18] was 2.71 µM. The GI50 [19] was 1.12 µM, the TGI [19] was 2.59 µM and the GI50 [20] was 1.51 µM. For the same compound, the TGI [20] was 2.95 µM, the GI50 [21] was 1.39 µM and the TGI [21] was 2.82 µM. For the same compound, the GI50 [22] was 1.06 µM, the TGI [22] was 2.45 µM and the GI50 [23] was 1.46 µM. The TGI [23] was 2.91 µM, the GI50 [24] was 1.64 µM and the TGI [24] was 3.16 µM. It also gave a GI50 [25] of 1.72 µM, a TGI [25] of 3.17 µM and a GI50 [26] of 1.75 µM. For the same compound, the TGI [26] was 3.28 µM, the GI50 [27] was 1.41 µM and the TGI [27] was 3.06 µM. The GI50 [28] was 1.66 µM, the TGI [28] was 3.15 µM and the GI50 [29] was 1.1 µM. For the same compound, the TGI [29] was 2.6 µM.

`COc1nc2c(c(=O)[nH]1)N=C(c1ccccc1)CC(c1ccccc1)N2` (stereo not drawn) showed a TGI [1] greater than 100 µM, a TGI [30] of 81.6 µM and a TGI [2] of 81.4 µM. It also gave a TGI [3] greater than 100 µM, a TGI [4] greater than 100 µM and a TGI [5] greater than 100 µM. The TGI [31] was greater than 100 µM, the TGI [32] was greater than 100 µM and the TGI [7] was 71.7 µM. It also gave a TGI [8] greater than 100 µM, a TGI [33] greater than 100 µM and a TGI [9] greater than 100 µM. It also gave a TGI [10] of 52.5 µM, a TGI [11] greater than 100 µM and a TGI [12] greater than 100 µM. For the same compound, the TGI [34] was 60.3 µM, the TGI [13] was greater than 100 µM and the TGI [35] was greater than 100 µM. For the same compound, the TGI [14] was greater than 100 µM, the TGI [15] was greater than 100 µM and the TGI [36] was greater than 100 µM. For the same compound, the TGI [37] was greater than 100 µM, the TGI [17] was greater than 100 µM and the TGI [18] was greater than 100 µM. For the same compound, the TGI [19] was greater than 100 µM, the TGI [38] was greater than 100 µM and the TGI [39] was greater than 100 µM. The TGI [40] was 75 µM, the TGI [41] was greater than 100 µM and the TGI [42] was greater than 100 µM. The TGI [43] was greater than 100 µM, the TGI [20] was greater than 100 µM and the TGI [44] was greater than 100 µM. For the same compound, the TGI [21] was greater than 100 µM, the TGI [45] was greater than 100 µM and the TGI [46] was 96.9 µM. It also gave a TGI [47] greater than 100 µM, a TGI [48] greater than 100 µM and a TGI [23] greater than 100 µM. For the same compound, the TGI [49] was greater than 100 µM, the TGI [24] was greater than 100 µM and the TGI [50] was greater than 100 µM. The TGI [51] was greater than 100 µM, the TGI [25] was greater than 100 µM and the TGI [26] was greater than 100 µM. It also gave a TGI [52] greater than 100 µM, a TGI [27] greater than 100 µM and a TGI [28] greater than 100 µM. For the same compound, the TGI [29] was greater than 100 µM, the TGI [53] was greater than 100 µM and the TGI [54] was greater than 100 µM.

For `Oc1c(CN2CCCCC2)ccc2cccnc12`, the GI50 [1] was 3.56 µM, the TGI [1] was 42.6 µM and the GI50 [30] was 4.79 µM. For the same compound, the TGI [30] was greater than 100 µM, the GI50 [2] was 2.98 µM and the TGI [2] was 9.59 µM. The GI50 [55] was 6.07 µM, the TGI [55] was greater than 100 µM and the GI50 [3] was 6.6 µM. The TGI [3] was 32.8 µM, the GI50 [4] was 4.33 µM and the TGI [4] was 25 µM. The GI50 [5] was 2.69 µM, the TGI [5] was 15.4 µM and the GI50 [31] was 5.23 µM. It also gave a TGI [31] of 76.9 µM, a GI50 [32] of 3.38 µM and a TGI [32] of 14.8 µM. For the same compound, the GI50 [6] was 3.98 µM, the TGI [6] was 42.9 µM and the GI50 [7] was 4.15 µM. For the same compound, the TGI [7] was 34.8 µM, the GI50 [8] was 3.64 µM and the TGI [8] was 15 µM. The GI50 [33] was 2.41 µM, the TGI [33] was 16 µM and the GI50 [9] was 4.65 µM. For the same compound, the TGI [9] was 21.4 µM, the GI50 [10] was 5.67 µM and the TGI [10] was 74.3 µM. For the same compound, the GI50 [11] was 4.03 µM, the TGI [11] was 24.4 µM and the GI50 [12] was 0.52 µM. It also gave a TGI [12] of 3.23 µM, a GI50 [34] of 3.63 µM and a TGI [34] greater than 100 µM. It also gave a GI50 [56] of 11.1 µM, a TGI [56] greater than 100 µM and a GI50 [35] of 9.23 µM. For the same compound, the TGI [35] was greater than 100 µM, the GI50 [14] was 3.61 µM and the TGI [14] was 30.9 µM. For the same compound, the GI50 [15] was 4.89 µM, the TGI [15] was 39.5 µM and the GI50 [57] was 3.63 µM. The TGI [57] was 31 µM, the GI50 [16] was 3.34 µM and the TGI [16] was 12.8 µM. The GI50 [36] was 2.52 µM, the TGI [36] was 7.8 µM and the GI50 [37] was 3.21 µM. It also gave a TGI [37] greater than 100 µM, a GI50 [17] of 3.26 µM and a TGI [17] of 37.4 µM. For the same compound, the GI50 [18] was 5.46 µM, the TGI [18] was 21.3 µM and the GI50 [19] was 3.91 µM. The TGI [19] was 19.6 µM, the GI50 [38] was 3.6 µM and the TGI [38] was 10.9 µM. The GI50 [39] was 2.73 µM, the TGI [39] was 9.18 µM and the GI50 [40] was 3.71 µM. The TGI [40] was 31 µM, the GI50 [41] was 3.95 µM and the TGI [41] was 51.4 µM. It also gave a GI50 [42] of 2.72 µM, a TGI [42] greater than 100 µM and a GI50 [43] of 3.6 µM. The TGI [43] was 17.3 µM, the GI50 [20] was 3.75 µM and the TGI [20] was 54.3 µM. It also gave a GI50 [44] of 0.955 µM, a TGI [44] of 10.9 µM and a GI50 [21] of 5.42 µM. For the same compound, the TGI [21] was 36.4 µM, the GI50 [45] was 4.26 µM and the TGI [45] was 18 µM. The GI50 [46] was 3.97 µM, the TGI [46] was greater than 100 µM and the GI50 [47] was 8.86 µM. For the same compound, the TGI [47] was greater than 100 µM, the GI50 [22] was 0.728 µM and the TGI [22] was 82.9 µM. For the same compound, the GI50 [48] was 4.88 µM, the TGI [48] was 19.6 µM and the GI50 [23] was 2.41 µM. For the same compound, the TGI [23] was 8.22 µM, the GI50 [49] was 2.3 µM and the TGI [49] was 8.06 µM. It also gave a GI50 [24] of 0.566 µM, a TGI [24] of 5.42 µM and a GI50 [50] of 4.62 µM. It also gave a TGI [50] greater than 100 µM, a GI50 [51] of 6.84 µM and a TGI [51] of 36.1 µM. It also gave a GI50 [58] of 3.36 µM, a TGI [58] greater than 100 µM and a GI50 [25] of 2.91 µM. For the same compound, the TGI [25] was 83.3 µM, the GI50 [26] was 1.87 µM and the TGI [26] was greater than 100 µM. For the same compound, the GI50 [52] was 3.18 µM, the TGI [52] was 22.8 µM and the GI50 [27] was 10.4 µM. For the same compound, the TGI [27] was greater than 100 µM, the GI50 [28] was 3.72 µM and the TGI [28] was 28.1 µM. It also gave a GI50 [29] of 7.12 µM, a TGI [29] greater than 100 µM and a GI50 [53] of 7.18 µM. The TGI [53] was 52.5 µM, the GI50 [54] was 2.31 µM and the TGI [54] was 7.62 µM.
